Values quoted from earlier work in US7345028B1, “Energy-protective composition comprising adenosine phosphates” (priority 2002, dated 2008).

Test system: experimental animals
Conditions: administered prior to and after gamma irradiation

## Nc1ncnc2c1ncn2[C@@H]1O[C@H](COP(=O)(O)OP(=O)(O)O)[C@@H](O)[C@H]1O [adenosine diphosphate]
  protective action against irradiation: protective action
